Literature values in patent US20230270707A1, “ORAL LIQUID PHARMACEUTICAL COMPOSITIONS OF ISOTRETINOIN” (IDRS Labs Private Limited, priority 2020, published 2023).
Where two headings read alike, the source gives them in different places.

Experiments:
[1] = target plasma level of isotretinoin ≥2 μM

patients who achieved the target Cmax ([1]; drug extracted from capsules and mixed with food or given via nasogastric tube): 55%
patients who achieved the target Cmax ([1]; patients able to swallow the capsules): 92.5%
solubility in water: practically insoluble in water
SMILES: CC1=C(/C=C/C(C)=C/C=C/C(C)=C\C(=O)O)C(C)(C)CCC1 [isotretinoin, 13-cis retinoic acid]
